Experimental data taken from patent US20240115672A1, “TREATMENT OF AN IOP CONDITION” (THE RESEARCH FOUNDATION FOR THE STATE UNIVERSITY OF NEW YORK, priority 2021, published 2024).

Key:
[1] = test system: MMP-2, MMP-9, MMP-13 expression in HTM cells; test: MMP expression in HTM cells (Examples 17, 18); type: cell-based, human; settings: for MMP-9 expression compared to PA+NE-tPA treated cells: p<0.0001
[2] = test system: Mmp-2, Mmp-9, Mmp-13 mRNA in angle ring tissues; test: Mmp expression in Tg-MYOCY437H angle ring tissues (Example 19); type: in vivo, mouse; settings: 5 days treatment
Method: Eyes were flash frozen in liquid nitrogen after outflow facility determination and subsequently dissected on ice to obtain the angle ring tissues containing the TM, as previously described (Kumar, Shah et al. 2013). Dissected TM tissues were immersed in RNAlater solution (Invitrogen, Waltham, MA, USA) and then snap-frozen and stored at −80° C. until RNA extraction. Tissue collected was pooled (four eyes) and homogenized in TRIzol reagent for RNA isolation, per manufacturer's instructions (Life Technologies, Carlsbad, CA, USA). RNA concentration was determined with a Nanodrop ND-1000 Spectrophotometer (Thermo Scientific, Wilmington, DE, USA). cDNA was synthesized by using High-Capacity cDNA
Reverse Transcription Kit (Applied Biosystems, Waltham, MA, USA) according to manufacturer's protocol. Quantitative real-time PCR (qRT-PCR) was performed by using Green-2-Go qPCR Mastermix-ROX (Bio Basic, Amherst, NY, USA) on a QuantStudio 6 Flex thermal cycler (Applied Biosystems, Carlsbad, CA, USA). mRNA expression of Plat, Plait, Pai-1, Mmp-2, Mmp-9, and Mmp-13 in angle ring tissues was determined. Primers were designed by using Primer-BLAST (haps://www.ncbi.nlm.nih.gov/tools/primer-blast/index.cgi?LINK_LOC=BlastHome; in the public domain); primer sequences are listed in Table 2. Primer specificity was confirmed by agarose gel electrophoresis and multiple-sized amplification products were absent on inspection of melting curves. Target mRNA expression values were normalized to the expression levels of Rps11 (ribosomal protein S11). The relative fold change was calculated by using the ΔΔCt method (Hu, Wang et al. 2015). Outliers identified via the Thompson Tau test were removed from analysis.

Tg-MYOCY437H mice = settings: systemic and topical administration; cited from earlier work
sheep = test: Sheep given tPA or arginine concurrently with prednisolone (Example 3 Protocol 2, Example 4); type: in vivo; settings: 4.23 mg arginine intravitreal plus prednisolone (OS) compared to tPA and prednisolone (OD)
Method: Protocol 2. In a second set of experiments, arginine was added to the BSS vehicle administered to the left eye to control for the relatively high concentration of the amino acid in the commercially available tPA lyophilisate. In these experiments all right eyes received 0.1 mg tPA, which concomitantly delivered 4.23 mg of arginine into the vitreous, and the left eye received this same amount of arginine, absent the tPA. On Day 1, prednisolone treatments were also begun simultaneously on both eyes.
Methods. In this experiment, the inventor sought to detect the effects of tPA treatment on prevention of steroid-induced IOP elevation. In 4 sheep tPA was injected in one eye (100 μg) and they were started on prednisolone acetate three times a day in both eyes. Animals were monitored for 11 days on continuous treatment.

[3] = test system: sheep of the Coriedale breed; test: IOP in prednisolone-treated sheep after tPA injection into the anterior chamber (Example 9); type: in vivo
Method: Methods. Lyophilized IPA, obtained as Acetilyse® from Boehringer Ingelheim S.A. (Buenos Aires) containing arginine. was used. Five sheep of the Coriedale breed were selected. Initially all eyes received instillation of 1% prednisolone 3 times/day for 10 days to elevate their IOP from 10 mm Hg to about 23 mm Hg. Then, 0.0001 μg was injected into one of the eyes and its effect was followed for up to 55:00 hrs while the instillation of prednisolone continued in both eyes. The same protocol was implemented for the 0.001 and 0.01 μg amounts (after extended washout) in the contra lateral eyes. Arginine, which is associated with 0.01 ug tPA, was injected alone and had no effect.

## C[C@]12N[C@H](Cc3ccccc31)c1ccccc12 [MK-801]
[1]; inhibitor added to PA+NE-tPA
  MMP-9 expression compared to PA+NE-tPA treated cells: significantly lower
[1]; inhibitor added to PA+NE-tPA, p<0.05
  MMP-2 expression compared to PA+NE-tPA treatment: significant reduction

## O=C([O-])CCCc1ccccc1.[Na+] [PBA, sodium phenylbutarate]
[2]
  Mmp-9 expression compared to BSA treated eyes: higher
  Mmp-13 expression compared to BSA treated eyes: did not show any difference
[2]; p>0.05
  Mmp-2 expression compared to BSA treated eyes: no significant difference
Tg-MYOCY437H mice
  effect on IOP: effective in reducing IOP

## N=C(N)NCCC[C@H](N)C(=O)O [arginine]
sheep
  effect of arginine alone: failed to reduce outflow facility
[3]; amount associated with 0.01 ug tPA
  effect of arginine injected alone: no effect

## CC(=O)OCC(=O)[C@@]1(O)CC[C@H]2[C@@H]3CCC4=CC(=O)C=C[C@]4(C)[C@H]3[C@@H](O)C[C@@]21C [prednisolone, prednisolone acetate]
[3]; 1% prednisolone 3 times/day for 10 days, from 10 mm Hg
  IOP after prednisolone: about 23 mm Hg
[1]; PA treated HTM cells
  MMP-13 expression (FIG. 17D): below detection limits

B1: RAP: inhibitor of LRP1 (protein, UniProt P30533 35-357, looked up)
Alpha-2-macroglobulin …: YSREKNQPKPSPKRESGEEFRMEKLNQLWEKAQRLHLPPVRLAELHADLKIQERDELAWKKLKLDGLDEDGEKEARLIRNLNVILAKYGLDGKKDARQVTSNSLSGTQEDGLDDPRLEKLWHKAKTSGKFSGEELDKLWREFLHHKEKVHEYNVLLETLSRTEEIHENVISPSDLSDIKGSVLHSRHTELKEKLRSINQGLDRLRRVSHQGYSTEAEFEEPRVIDLWDLAQSANLTDKELEAFREELKHFEAKIEKHNHYQKQLEIAHEKLRHAESVGDGERVSRSREKHALLEGRTKELGYTVKKHLQDLSGRISRARHNEL
[1]; inhibitor added to PA+NE-tPA
  MMP-9 expression compared to PA+NE-tPA treated cells: significantly lower
